In patent US20100040552A1, “METHODS TO EVALUATE GLUCOCORTICOID RECEPTOR AGONISTS AND ANTAGONISTS FOR EFFECTS ON NEURON-LIKE CELLS” (ROSETTA INPHARMATICS LLC, priority 2005, published 2010):

Key:
[1] = biological target: T1, Glucocorticoid Receptor (Homo sapiens, UniProt P04150); experiment: Transactivation assay, A549 cells; type: cell-based; details: A549, read-out: Transactivation, A549 Emax
T1 sequence (P04150 1-777): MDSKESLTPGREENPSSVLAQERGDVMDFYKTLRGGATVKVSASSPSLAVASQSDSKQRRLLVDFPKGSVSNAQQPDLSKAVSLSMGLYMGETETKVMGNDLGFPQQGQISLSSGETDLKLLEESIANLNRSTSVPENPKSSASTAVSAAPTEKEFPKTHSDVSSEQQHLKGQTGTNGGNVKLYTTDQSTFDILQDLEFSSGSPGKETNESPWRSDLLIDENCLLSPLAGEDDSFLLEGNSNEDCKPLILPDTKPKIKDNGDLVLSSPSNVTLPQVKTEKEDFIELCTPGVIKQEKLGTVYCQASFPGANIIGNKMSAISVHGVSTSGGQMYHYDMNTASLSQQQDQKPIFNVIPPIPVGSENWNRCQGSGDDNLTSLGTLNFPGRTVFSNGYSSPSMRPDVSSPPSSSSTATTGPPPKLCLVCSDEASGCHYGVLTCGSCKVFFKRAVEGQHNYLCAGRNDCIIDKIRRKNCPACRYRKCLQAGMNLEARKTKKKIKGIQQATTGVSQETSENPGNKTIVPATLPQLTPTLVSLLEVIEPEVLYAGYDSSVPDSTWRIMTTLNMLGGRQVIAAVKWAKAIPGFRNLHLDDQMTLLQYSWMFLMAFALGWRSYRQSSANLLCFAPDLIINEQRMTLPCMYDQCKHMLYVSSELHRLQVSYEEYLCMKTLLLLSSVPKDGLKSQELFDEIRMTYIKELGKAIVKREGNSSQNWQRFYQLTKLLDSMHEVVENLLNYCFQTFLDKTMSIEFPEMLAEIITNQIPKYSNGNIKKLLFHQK

[2] = biological target: T2, PR (progesterone receptor) (Homo sapiens, UniProt P06401); experiment: PR binding study
T2 sequence (P06401 1-933): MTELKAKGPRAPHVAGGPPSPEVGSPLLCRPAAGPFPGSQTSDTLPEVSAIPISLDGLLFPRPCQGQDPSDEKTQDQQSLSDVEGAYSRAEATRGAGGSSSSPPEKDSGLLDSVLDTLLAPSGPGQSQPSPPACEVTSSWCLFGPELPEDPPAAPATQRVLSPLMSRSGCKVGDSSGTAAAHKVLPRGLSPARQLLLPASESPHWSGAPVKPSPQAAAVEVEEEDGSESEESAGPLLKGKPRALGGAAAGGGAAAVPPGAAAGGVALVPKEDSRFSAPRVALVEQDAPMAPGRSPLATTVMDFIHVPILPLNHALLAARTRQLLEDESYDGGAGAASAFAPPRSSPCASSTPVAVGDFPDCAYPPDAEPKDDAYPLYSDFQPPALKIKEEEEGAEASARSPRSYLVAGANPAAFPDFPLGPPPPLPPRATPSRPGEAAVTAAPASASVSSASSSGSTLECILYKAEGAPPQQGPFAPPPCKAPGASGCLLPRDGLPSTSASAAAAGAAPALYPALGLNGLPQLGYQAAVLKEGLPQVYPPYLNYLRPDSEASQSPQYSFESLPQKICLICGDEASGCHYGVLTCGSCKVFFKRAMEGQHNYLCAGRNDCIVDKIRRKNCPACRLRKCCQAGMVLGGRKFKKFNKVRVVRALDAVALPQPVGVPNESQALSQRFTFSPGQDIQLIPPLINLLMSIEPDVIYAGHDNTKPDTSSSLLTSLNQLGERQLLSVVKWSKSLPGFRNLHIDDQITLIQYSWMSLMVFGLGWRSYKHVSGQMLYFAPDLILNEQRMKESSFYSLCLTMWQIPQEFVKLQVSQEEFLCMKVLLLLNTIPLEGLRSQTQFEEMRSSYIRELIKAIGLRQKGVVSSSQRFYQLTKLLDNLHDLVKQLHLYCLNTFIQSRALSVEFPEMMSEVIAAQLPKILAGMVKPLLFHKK
Source text: The following abbreviations are used in Table II: MR, mineralocorticoid receptor; GR, glucocorticoid receptor; and PR, progesterone receptor.

[3] = biological target: T1, Glucocorticoid Receptor; experiment: Transrepression assay, COS cells; type: cell-based; design: host or cells: COS cells; details: COS
[4] = tested on: CA77 cells; experiment: CA77 cell microarray profiling; type: cell-based, rat
Procedure: In order to reduce false positives, progesterone, estradiol, and aldosterone served as out-groups for non-specific effects. Samples were collected at both 6 hours and 24 hours after contacting the CA77 cells with a compound.

[5] = biological target: T1, Glucocorticoid Receptor; experiment: Transactivation assay, MDA cells; type: cell-based; design: host or cells: MDA cells; details: read-out: Transactivation, MDA Emax

## C[C@@H]1C[C@H]2[C@@H]3CCC4=CC(=O)C=C[C@]4(C)[C@@]3(F)[C@@H](O)C[C@]2(C)[C@@]1(O)C(=O)CO [Dexamethasone, dexamethasone]
[1]
  Emax: 118%
[2]
  IC50: > 1000 nM
[3]; read-out: Transrepression, COS % Emax, 0.3 μM
  Emax at 0.3 µM: 100%
[3]; read-out: Transrepression, COS % Emax, 1 uM
  Emax at 1 µM: 100%
[4]
  Sult1a1 up-regulation as detected by microarray: 11 fold
[5]
  Emax: 125%
